From patent US12479849B2, “EGFR inhibitors for the treatment of cancer” (Hoffmann-La Roche Inc., priority 2019, dated 2025)

Molecular target: T1, EGFR TMLRCS (Homo sapiens, UniProt P00533, C797S/L858R/T790M)
T1 construct: host or cells: BaF3-TMLRCS (Ba/F3 cells, kept under puromycin selection)
Assay: HTRF Phospho EGFR TMLRCS Assay (Cellular)
Format: cell-based
Settings: BaF3-TMLRCS cell line, 4 hours incubation, Phospho-EGFR HTRF readout
Method: HTRF Phospho EGFR TMLRCS Assay (Cellular)
BaF3-TMLRCS cell line were obtained from Crownbio (San Diego, CA, USA). Cells were maintained at 37° C., 5% CO2 in RPMI ATCC (Gibco 31870)+2 mM Glutamine+0.5 μg/ml Puromycin supplemented with 10% fetal bovine serum (FBS) (Gibco).
Cells are transferred as above to Greiner Bio-One, Nr. 784-08 micro-titerplate at 20000 cells/well in 12.5 μl of growth medium/well after the plates had been pre-filled with 12.5 nl of DMSO solutions of the to be tested compounds (in dose response) or DMSO only. After spinning the plates at 300×g for 30 seconds the cells were incubated for 4 hours at 37 C, 5% CO2, 95% humidity. The cells were lysed by adding to the compound mix 4 μl/well of the supplemented lysis buffer (Cis-bio, Phospho-EGFR HTRF kit, 64EG1PEH), followed by incubation for 30 min at room temperature with shaking (400 rpm). The plates were then frozen and stored overnight at −80 C. On the next day and after thawing the plates, 4 μl of a mixture of anti-Phospho-EGFR Cryptate and of anti-Phospho-EGFR-d2 antibody solutions prepared in the supplied detection buffer was added to each well. The lidded plates were then incubated for 4 h at room temperature before reading the fluorescence emission at 616 and 665 nm using an Envision reader (Perkin Elmer). Data was analyzed in similar fashion as above using the normalized ratio of the 665 to 616 signals multiplied by 10000.

T1 sequence (P00533 25-1210 T790M/C797S/L858R): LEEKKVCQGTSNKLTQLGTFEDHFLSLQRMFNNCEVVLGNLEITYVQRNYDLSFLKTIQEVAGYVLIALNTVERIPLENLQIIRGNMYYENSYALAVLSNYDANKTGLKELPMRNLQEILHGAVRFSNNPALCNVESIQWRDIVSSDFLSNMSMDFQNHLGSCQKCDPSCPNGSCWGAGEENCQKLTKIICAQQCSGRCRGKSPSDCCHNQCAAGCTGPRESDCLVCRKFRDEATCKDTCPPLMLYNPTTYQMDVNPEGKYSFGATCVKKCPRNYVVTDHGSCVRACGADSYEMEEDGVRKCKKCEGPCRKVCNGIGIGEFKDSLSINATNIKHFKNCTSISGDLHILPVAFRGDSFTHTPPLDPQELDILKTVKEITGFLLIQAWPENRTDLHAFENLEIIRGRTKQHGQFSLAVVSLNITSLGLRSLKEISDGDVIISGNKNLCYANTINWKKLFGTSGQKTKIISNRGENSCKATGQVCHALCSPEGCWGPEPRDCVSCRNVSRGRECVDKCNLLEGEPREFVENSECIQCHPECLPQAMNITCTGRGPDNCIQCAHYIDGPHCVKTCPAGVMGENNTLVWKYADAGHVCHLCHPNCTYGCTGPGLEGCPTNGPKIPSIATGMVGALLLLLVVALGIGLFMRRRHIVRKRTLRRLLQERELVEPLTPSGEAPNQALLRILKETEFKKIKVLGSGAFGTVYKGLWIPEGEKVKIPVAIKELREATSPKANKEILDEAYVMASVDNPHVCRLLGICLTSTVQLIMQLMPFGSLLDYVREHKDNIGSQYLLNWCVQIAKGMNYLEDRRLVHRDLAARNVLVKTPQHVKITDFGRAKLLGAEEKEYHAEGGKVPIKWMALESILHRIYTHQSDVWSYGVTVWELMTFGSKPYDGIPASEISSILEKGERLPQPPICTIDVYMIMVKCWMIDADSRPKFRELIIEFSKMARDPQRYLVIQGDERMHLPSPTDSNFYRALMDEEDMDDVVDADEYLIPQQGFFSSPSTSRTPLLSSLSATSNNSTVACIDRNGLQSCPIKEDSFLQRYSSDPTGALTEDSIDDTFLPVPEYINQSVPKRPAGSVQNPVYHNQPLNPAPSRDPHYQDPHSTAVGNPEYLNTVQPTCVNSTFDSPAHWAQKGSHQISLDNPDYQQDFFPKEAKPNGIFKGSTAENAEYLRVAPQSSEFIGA

Row | Compound | IC50
1 | CN(CCN1CCC(O)CC1)c1ccc(-c2cc(Cl)c3cn(C(C(=O)Nc4nccs4)c4ncn5c4C[C@@H](F)C5)nc3c2Cl)cc1 (some centres unmarked) [Example 80] | 8 nM
2 | CN(C)Cc1ccc(-c2cc(Cl)c3cn(C(C(=O)Nc4nccs4)c4ncn5c4C[C@@H](F)C5)nc3c2Cl)cc1 (mixture of isomers) [Example 48, rac-2-(4,7-Dichloro-6-(4-((dimethylamino)methyl)phenyl)-2H-indazol-2-yl)-2-((R)-6-fluoro-6,7-dihydro-5H-pyrrolo[1,2-c]imidazol-1-yl)-N-(thiazol-2-yl)acetamide] | 8 nM
3 | O=C(Nc1nccs1)C(c1ncn2c1C[C@@H](F)C2)n1cc2c(Cl)cc(-c3ccc(N4CCN(CCO)CC4)cc3)c(Cl)c2n1 (mixture of isomers) [Example 61, rac-2-(4,7-Dichloro-6-(4-(4-(2-hydroxyethyl)piperazin-1-yl)phenyl)-2H-indazol-2-yl)-2-((R)-6-fluoro-6,7-dihydro-5H-pyrrolo[1,2-c]imidazol-1-yl)-N-(thiazol-2-yl)acetamide] | 3 nM
4 | CCN1CC[C@@H](c2ccc(-c3cc(C)c4cn(C(C(=O)Nc5nccs5)c5ncn6c5C[C@@H](F)C6)nc4c3Cl)cc2)[C@H](F)C1 (single isomer, unassigned) [Example 129] | 10 nM
5 | CCN(CC)CC1(c2ccc(-c3cc(C)c4cn(C(C(=O)Nc5nccs5)c5ncn6c5C[C@@H](F)C6)nc4c3C)cc2)CC1 (stereo partly drawn) [Example 122, 2-(6-(4-(1-((Diethylamino)methyl)cyclopropyl)phenyl)-4,7-dimethyl-2H-indazol-2-yl) ((R)-6-fluoro-6,7-dihydro-5H-pyrrolo[1,2-c]imidazol-1-yl)-N-(thiazol-2-yl)acetamide] | 19 nM
6 | CCN1CCC(c2ccc(-c3cc(Cl)c4cn(C(C(=O)Nc5nccs5)c5ncn6c5CCC6)nc4c3Cl)cc2)CC1 (centres unmarked) [Example 104, 2-(4,7-Dichloro-6-(4-(1-ethylpiperidin-4-yl)phenyl)-2H-indazol-2-yl)-2-(6,7-dihydro-5H-pyrrolo[1,2-c]imidazol-1-yl)-N-(thiazol-2-yl)acetamide] | 12 nM
7 | CCc1c(-c2ccc(N3CCOCC3)cc2)cc(Cl)c2cn(C(C(=O)Nc3nccs3)c3ncn4c3C[C@@H](F)C4)nc12 (stereo partly drawn) [Example 125, 2-(4-Chloro-7-ethyl-6-(4-morpholinophenyl)-2H-indazol-2-yl)-2-((R)-6-fluoro-6,7-dihydro-5H-pyrrolo[1,2-c]imidazol-1-yl)-N-(thiazol-2-yl)acetamide] | 11 nM
8 | N#Cc1cc(-c2cc(Cl)c3cn(C(C(=O)Nc4nccs4)c4ncn5c4C[C@@H](F)C5)nc3c2Cl)ccc1N1CCOCC1 (mixture of isomers) [Example 36, rac-2-(4,7-Dichloro-6-(3-cyano-4-morpholinophenyl)-2H-indazol-2-yl)-2-((R)-6-fluoro-6,7-dihydro-5H-pyrrolo[1,2-c]imidazol-1-yl)-N-(thiazol-2-yl)acetamide] | 9 nM
9 | O=C(Nc1nccs1)C(c1ncn2c1C[C@@H](F)C2)n1cc2c(Cl)cc(-c3ccc(CN4CCC(CO)CC4)cc3)c(Cl)c2n1 (mixture of isomers) [Example 53, rac-2-(4,7-Dichloro-6-(4-04-(hydroxymethyl)piperidin-1-yl)methyl)phenyl)-2H-indazol-2-yl)-2-((R)-6-fluoro-6,7-dihydro-5H-pyrrolo[1,2-c]imidazol-1-yl)-N-(thiazol-2-yl)acetamide] | 5 nM
10 | CCN1CCN(c2ccc(-c3cc(C)c4cn(C(C(=O)Nc5nccs5)c5ncn6c5C[C@@H](F)C6)nc4c3C)cc2)CC1 (stereo partly drawn) [Example 121, 2-(6-(4-(4-Ethylpiperazin-1-yl)phenyl)-4,7-dimethyl-2H-indazol-2-yl)-2-((R)-6-fluoro-6,7-dihydro-5H-pyrrolo[1,2-c]imidazol-1-yl)-N-(thiazol-2-yl)acetamide] | 8 nM
11 | CN(CCN1CCC(CO)CC1)c1ccc(-c2cc(Cl)c3cn(C(C(=O)Nc4nccs4)c4ncn5c4C[C@@H](F)C5)nc3c2Cl)cc1 (some centres unmarked) [Example 79] | 7 nM
12 | CC(O)CN1CCN(c2ccc(-c3cc(Cl)c4cn(C(C(=O)Nc5nccs5)c5ncn6c5C[C@@H](F)C6)nc4c3Cl)cc2)CC1 (mixture of isomers) [Example 71, rac-2-(4,7-Dichloro-6-(4-(4-(2-hydroxypropyl)piperazin-1-yl)phenyl)-2H-indazol-2-yl)-2-((R)-6-fluoro-6,7-dihydro-5H-pyrrolo[1,2-c]imidazol-1-yl)-N-(thiazol-2-yl)acetamide] | 8 nM
13 | CN(C)CCN(C)c1ccc(-c2cc(Cl)c3cn(C(C(=O)Nc4nccs4)c4ncn5c4C[C@@H](F)C5)nc3c2Cl)cc1 (mixture of isomers) [Example 41, rac-2-(4,7-Dichloro-6-(4-((2-(dimethylamino)ethyl)(methyl)amino)phenyl)-2H-indazol-2-yl)-2-((R)-6-fluoro-6,7-dihydro-5H-pyrrolo[1,2-c]imidazol-1-yl)-N-(thiazol-2-yl)acetamide] | 10 nM
14 | CCN1CC[C@@H](c2ccc(-c3cc(Cl)c4cn(C(C(=O)Nc5nccs5)c5ncn6c5C[C@@H](F)C6)nc4c3Cl)cc2)[C@H](F)C1 (mixture of isomers) [Example 38, 2-[4,7-Dichloro-6-[4-[rac-(3S,4S)-1-ethyl-3-fluoro-4-piperidyl]phenyl]indazol-2-yl]-2-[(6R)-6-fluoro-6,7-dihydro-5H-pyrrolo[1,2-c]imidazol-1-yl]-N-thiazol-2-yl-acetamide OR 2-[4,7-Dichloro-6-[4-[rac-(3R,4R)-1-ethyl-3-fluoro-4-piperidyl]phenyl]indazol-2-yl]-2-[(6R)-6-fluoro-6,7-dihydro-5H-pyrrolo[1,2-c]imidazol-1-yl]-N-thiazol-2-yl-acetamide] | 10 nM
15 | O=C(Nc1nccs1)C(c1ncn2c1C[C@@H](F)C2)n1cc2c(Cl)cc(-c3ccc(CN4CCC(F)(CO)CC4)cc3)c(Cl)c2n1 (stereo partly drawn) [Example 65, 2-(4,7-Dichloro-6-(4-((4-fluoro-4-(hydroxymethyl)piperidin-1-yl)methyl)phenyl)-2H-indazol-2-yl)-2-((R)-6-fluoro-6,7-dihydro-5H-pyrrolo[1,2-c]imidazol-1-yl)-N-(thiazol-2-yl)acetamide] | 4 nM
16 | O=C(Nc1nccs1)C(c1ncn2c1C[C@@H](F)C2)n1cc2c(Cl)cc(-c3ccc(C4CCN(C5CC5)CC4)cc3)c(Cl)c2n1 (stereo partly drawn) [Example 28, 2-(4,7-Dichloro-6-(4-(1-cyclopropylpiperidin-4-yl)phenyl)-2H-indazol-2-yl)-2-((R)-6-fluoro-6,7-dihydro-5H-pyrrolo[1,2-c]imidazol-1-yl)-N-(thiazol-2-yl)acetamide] | 17 nM
17 | CCN1CCC(c2ccc(-c3cc(C)c4cn(C(C(=O)Nc5nccs5)c5ncn6c5C[C@@H](F)C6)nc4c3C)cc2)CC1 (stereo partly drawn) [Example 120, 2-(6-(4-(1-Ethylpiperidin-4-yl)phenyl)-4,7-dimethyl-2H-indazol-2-yl)-2-((R)-6-fluoro-6,7-dihydro-5H-pyrrolo[1,2-c]imidazol-1-yl)-N-(thiazol-2-yl)acetamide] | 15 nM
18 | CCN1CC2(CCCN(c3ccc(-c4cc(Cl)c5cn(C(C(=O)Nc6nccs6)c6ncn7c6C[C@@H](F)C7)nc5c4Cl)cc3)C2)C1 (some centres unmarked) [Example 82] | 11 nM
19 | O=C(Nc1nccs1)C(c1ncn2c1C[C@@H](F)C2)n1cc2c(Cl)cc(-c3ccc(CN4CCC5(CC4)CC(O)C5)cc3)c(Cl)c2n1 (mixture of isomers) [Example 91, rac-2-(4,7-Dichloro-6-(4-((2-hydroxy-7-azaspiro[3.5]nonan-7-yl)methyl)phenyl)-2H-indazol-2-yl)-2-((R)-6-fluoro-6,7-dihydro-5H-pyrrolo[1,2-c]imidazol-1-yl)-N-(thiazol-2-yl)acetamide] | 8 nM
20 | COC1CCN(Cc2ccc(-c3cc(Cl)c4cn(C(C(=O)Nc5nccs5)c5ncn6c5C[C@@H](F)C6)nc4c3Cl)cc2)C1 (mixture of isomers) [Example 98, rac-2-(4,7-Dichloro-6-(4-((3-methoxypyrrolidin-1-yl)methyl)phenyl)-2H-indazol-2-yl)-2-((R)-6-fluoro-6,7-dihydro-5H-pyrrolo[1,2-c]imidazol-1-yl)-N-(thiazol-2-yl)acetamide] | 6 nM
21 | O=C(Nc1nccs1)C(c1ncn2c1C[C@@H](F)C2)n1cc2c(Cl)cc(-c3ccc(N4CCN5C[C@H](O)C[C@H]5C4)cc3)c(Cl)c2n1 (stereo partly drawn) [Example 93, 2-(4,7-Dichloro-6-(4-((7R,8aS)-7-hydroxyhexahydropyrrolo[1,2-a]pyrazin-2(1H)-yl)phenyl)-2H-indazol-2-yl)-2-((R)-6-fluoro-6,7-dihydro-5H-pyrrolo[1,2-c]imidazol-1-yl)-N-(thiazol-2-yl)acetamide] | 6 nM
22 | O=C(Nc1nccs1)C(c1ncn2c1C[C@@H](F)C2)n1cc2c(Cl)cc(-c3ccc(C4CCN(CCF)CC4)cc3)c(Cl)c2n1 (stereo partly drawn) [Example 33, 2-(4,7-Dichloro-6-(4-(1-(2-fluoroethyl)piperidin-4-yl)phenyl)-2H-indazol-2-yl)-2-((R)-6-fluoro-6,7-dihydro-5H-pyrrolo[1,2-c]imidazol-1-yl)-N-(thiazol-2-yl)acetamide] | 7 nM
23 | CN(C)CCOc1ccc(-c2cc(Cl)c3cn(C(C(=O)Nc4nccs4)c4ncn5c4C[C@@H](F)C5)nc3c2Cl)cc1 (mixture of isomers) [Example 34, 2-[4,7-Dichloro-6-[4-[2-(dimethylamino)ethoxy]phenyl]indazol-2-yl]-2-[rac-(6R)-6-fluoro-6,7-dihydro-5H-pyrrolo[1,2-c]imidazol-1-yl]-N-(1,3-thiazol-2-yl)acetamide] | 6 nM
